PMC9880324, “Sugar perception in honeybees” (Frontiers in Physiology, 2023)

Key:
AmGr2 = target: T1, AmGr2 (Apis mellifera, UniProt A0A7M7R6T6); test: two-electrode voltage clamp, Xenopus oocytes; format: cell-based; conditions: 160 mM sugar, pH 7.5, -80 mV, agonist
T1 construct: gene LOC413684; cDNA cloned from taste tissue, subcloned in pNBIu, cRNA expressed alone in Xenopus oocytes; homomer
T1 sequence (A0A7M7R6T6 1-470): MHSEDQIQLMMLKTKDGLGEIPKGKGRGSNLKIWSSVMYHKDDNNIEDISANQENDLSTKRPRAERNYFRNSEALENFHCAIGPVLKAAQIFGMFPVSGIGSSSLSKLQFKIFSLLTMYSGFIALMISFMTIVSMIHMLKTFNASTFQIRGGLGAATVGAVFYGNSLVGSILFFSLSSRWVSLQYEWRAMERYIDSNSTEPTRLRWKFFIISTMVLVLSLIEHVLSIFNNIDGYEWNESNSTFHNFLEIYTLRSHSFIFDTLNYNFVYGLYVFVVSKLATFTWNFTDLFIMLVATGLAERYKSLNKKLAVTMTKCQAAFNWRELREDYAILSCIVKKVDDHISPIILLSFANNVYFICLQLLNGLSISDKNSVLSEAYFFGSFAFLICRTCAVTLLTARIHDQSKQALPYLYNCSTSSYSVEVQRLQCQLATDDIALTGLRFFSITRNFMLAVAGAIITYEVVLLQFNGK

AmGr3 = target: T2, AmGr3 (Apis mellifera, UniProt A0A7M7IGL4); test: two-electrode voltage clamp, Xenopus oocytes; format: cell-based; conditions: 160 mM sugar, pH 7.5, -80 and -140 mV; agonist
T2 construct: gene LOC725483; cDNA cloned from taste tissue, subcloned in pNBIu, cRNA expressed alone in Xenopus oocytes
T2 sequence (A0A7M7IGL4 1-474): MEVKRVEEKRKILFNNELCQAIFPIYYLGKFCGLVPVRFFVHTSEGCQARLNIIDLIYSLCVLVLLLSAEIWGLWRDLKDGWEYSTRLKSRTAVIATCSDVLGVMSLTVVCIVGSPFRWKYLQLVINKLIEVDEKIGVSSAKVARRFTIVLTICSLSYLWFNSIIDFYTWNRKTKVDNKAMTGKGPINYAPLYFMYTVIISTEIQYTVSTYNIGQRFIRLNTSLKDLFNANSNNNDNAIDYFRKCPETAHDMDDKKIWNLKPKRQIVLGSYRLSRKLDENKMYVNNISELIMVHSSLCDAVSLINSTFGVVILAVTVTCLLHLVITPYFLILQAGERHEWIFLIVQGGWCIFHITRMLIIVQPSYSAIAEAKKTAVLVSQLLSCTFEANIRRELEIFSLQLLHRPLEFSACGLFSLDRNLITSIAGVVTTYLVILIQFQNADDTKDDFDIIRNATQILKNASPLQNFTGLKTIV

OC[C@H]1O[C@@](CO)(O[C@H]2O[C@H](CO)[C@@H](O)[C@H](O)[C@H]2O)[C@@H](O)[C@@H]1O [sucrose]
two-electrode voltage clamp, Xenopus oocytes (AmGr2; microscopic inward current): Sustained inward currents could only be generated by application of sucrose

OC[C@H]1OC(O)[C@H](O)[C@@H](O)[C@@H]1O (stereo partly drawn) [glucose]
two-electrode voltage clamp, Xenopus oocytes (AmGr2; transient microscopic inward current): AmGr2-expression revealed transient inward currents during glucose application

OCC1(O)OC[C@@H](O)[C@@H](O)[C@@H]1O (stereo partly drawn) [fructose]
two-electrode voltage clamp, Xenopus oocytes (AmGr3): The sole expression of AmGr3 in oocytes revealed only fructose-induced current responses
